Like-named read-outs stand apart in the source and are kept apart here.
Columns and labels:
Assay type in all cases: biochemical
[1] = molecular target: T1, hepsin (Homo sapiens, UniProt P05981); test: Fluorogenic kinetic enzyme inhibitor assay, hepsin
T1 construct: purchased R&D Systems 4776-SE-010

[2] = molecular target: T2, matriptase (Homo sapiens, UniProt Q9Y5Y6); test: Fluorogenic kinetic enzyme inhibitor assay, matriptase
T2 construct: purchased R&D Systems 3946-SEB-010
T2 sequence (Q9Y5Y6 615-855 limits assumed): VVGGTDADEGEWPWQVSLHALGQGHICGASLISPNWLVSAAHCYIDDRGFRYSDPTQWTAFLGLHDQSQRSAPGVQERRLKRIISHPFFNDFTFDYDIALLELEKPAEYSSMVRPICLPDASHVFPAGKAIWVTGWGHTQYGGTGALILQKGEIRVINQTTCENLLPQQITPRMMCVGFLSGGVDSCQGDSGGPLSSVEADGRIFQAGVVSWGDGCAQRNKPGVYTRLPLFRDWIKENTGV

[3] = molecular target: TMPRSS2 (Homo sapiens, UniProt O15393); test: Fluorogenic kinetic enzyme inhibitor assay, TMPRSS2; design: purchased Cusabio Technology CSB-YP023924HU; conditions: read-out: TMPRSS2 IC50
[4] = molecular target: T3, HGFA (Homo sapiens, UniProt Q04756); test: Fluorogenic kinetic enzyme inhibitor assay, HGFA
T3 construct: purchased R&D Systems 1514-SE-010
T3 sequence (Q04756 408-655 limits assumed): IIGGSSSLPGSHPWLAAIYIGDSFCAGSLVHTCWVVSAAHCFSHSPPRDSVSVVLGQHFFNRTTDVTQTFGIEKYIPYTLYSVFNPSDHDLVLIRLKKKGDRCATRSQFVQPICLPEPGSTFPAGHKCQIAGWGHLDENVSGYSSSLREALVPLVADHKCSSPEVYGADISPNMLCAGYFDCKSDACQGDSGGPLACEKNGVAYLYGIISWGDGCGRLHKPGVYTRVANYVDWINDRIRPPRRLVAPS
T3 sequence (Q04756 373-407 partner limits assumed): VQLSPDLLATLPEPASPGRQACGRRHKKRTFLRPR

Sequence of TMPRSS2 (O15393 106-492 limits assumed): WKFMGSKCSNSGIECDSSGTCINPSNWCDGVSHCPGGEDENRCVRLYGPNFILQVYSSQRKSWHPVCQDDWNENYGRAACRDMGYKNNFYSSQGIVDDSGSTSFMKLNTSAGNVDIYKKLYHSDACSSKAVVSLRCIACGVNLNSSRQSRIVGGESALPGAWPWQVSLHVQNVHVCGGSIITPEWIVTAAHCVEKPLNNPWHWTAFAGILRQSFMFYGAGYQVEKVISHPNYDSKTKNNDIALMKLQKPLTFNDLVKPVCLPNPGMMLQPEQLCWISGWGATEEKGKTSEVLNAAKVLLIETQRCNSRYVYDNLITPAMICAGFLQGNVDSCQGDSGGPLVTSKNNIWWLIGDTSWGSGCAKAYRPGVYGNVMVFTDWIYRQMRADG
T1 sequence (P05981 163-417 limits assumed): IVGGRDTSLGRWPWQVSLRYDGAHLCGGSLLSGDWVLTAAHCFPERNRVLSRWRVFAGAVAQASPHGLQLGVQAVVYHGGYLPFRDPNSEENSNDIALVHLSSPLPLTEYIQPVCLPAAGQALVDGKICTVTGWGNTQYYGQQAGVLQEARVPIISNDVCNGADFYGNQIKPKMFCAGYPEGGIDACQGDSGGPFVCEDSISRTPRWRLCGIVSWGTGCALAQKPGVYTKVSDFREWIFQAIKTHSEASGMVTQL
T1 sequence (P05981 1-162 partner limits assumed): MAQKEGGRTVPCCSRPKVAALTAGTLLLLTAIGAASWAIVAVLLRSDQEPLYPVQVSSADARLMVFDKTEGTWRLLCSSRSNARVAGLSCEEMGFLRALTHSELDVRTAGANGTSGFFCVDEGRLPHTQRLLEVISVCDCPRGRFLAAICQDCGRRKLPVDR

Structure (SMILES)	IC50 ([1]; read-out: Hepsin IC50)	IC50 [2]	IC50 [3]	IC50 ([4]; read-out: HGFA IC50)	IC50 [1]	IC50 [4]	IC50 ([2]; read-out: Matriptase IC50)	IC50 ([1]; 30 min incubation, Boc-QAR-AMC at Km, read-out: Hepsin IC50)	IC50 ([2]; 30 min incubation, Boc-QAR-AMC at Km, read-out: Matriptase IC50)	IC50 ([3]; 30 min incubation, Boc-QAR-AMC at Km)
CCC(C)[C@H](NC(C)=O)C(=O)N[C@@H](CCC(N)=O)C(=O)N[C@H](C(=O)N[C@@H](CCCNC(=N)N)C(=O)c1nc2ccccc2s1)C(C)C (stereo partly drawn) [MM3180-2, N-[(S)-2-methyl-1-[N-(S)-1-[(1,3-benzothiazol-2-yl)carbonyl]-4-guanidinobutylcarbamoyl]propyl](S)-2-[(2S)-2-acetylamino-3-methylvalerylamino]glutaramide]	0.106 nM	0.761 nM	0.031 nM	799 nM						
CC(=O)N1CCC[C@H]1C(=O)N[C@@H](CO)C(=O)N[C@@H](CCCCN)C(=O)N[C@@H](CCCNC(=N)N)C(=O)c1nc2ccccc2s1 [MM3194A, N-[(S)-2-hydroxy-1-[N-(S)-5-amino-1-[N-(S)-1-[(1,3-benzothiazol-2-yl)carbonyl]-4-guanidinobutylcarbamoyl]pentylcarbamoy1]ethyl]-(S)-1-acetyl-2-pyrrolidinecarboxamide]		0.293 nM	0.286 nM		2.43 nM	> 20000 nM				
CC(=O)N1CCC[C@H]1C(=O)N[C@@H](CO)C(=O)N[C@@H](CCCCN)C(=O)N[C@H](CCCNC(=N)N)C(=O)c1nc2ccccc2s1 [MM3194C, N-[(S)-2-hydroxy-1-[N-(S)-5-amino-1-[N-(R)-1-[(1,3-benzothiazol-2-yl)carbonyl]-4-guanidinobutylcarbamoyl]pentylcarbamoy1]ethyl]-(S)-1-acetyl-2-pyrrolidinecarboxamide]	24.9 nM	5.72 nM		> 20000 nM						
CCC(C)[C@H](NC(C)=O)C(=O)N[C@@H](CO)C(=O)N[C@@H](Cc1ccccc1)C(=O)N[C@H](CCCNC(=N)N)C(=O)c1nc2ccccc2s1 (stereo partly drawn) [MM4009-1, N-[(S)-2-hydroxy-1-[N-(S)-1-[N-(R)-1-[(1,3-benzothiazol-2-yl)carbonyl]-4-guanidinobutylcarbamoyl]-2-phenylethylcarbamoyl]ethyl](2S)-2-acetylamino-3-methylvaleramide]	2.08 nM	18.4 nM		1340 nM						
CCC(C)[C@H](NC(C)=O)C(=O)N[C@@H](CO)C(=O)N[C@@H](Cc1ccccc1)C(=O)N[C@@H](CCCNC(=N)N)C(=O)c1nc2ccccc2s1 (stereo partly drawn) [MM4009-2, N-[(S)-2-hydroxy-1-[N-(S)-1-[N-(S)-1-[(1,3-benzothiazol-2-yl)carbonyl]-4-guanidinobutylcarbamoyl]-2-phenylethylcarbamoyl]ethyl] (2S)-2-acetylamino-3-methylvaleramide]	1.05 nM	2.17 nM	0.067 nM	126 nM						
CCC(C)[C@H](NC(C)=O)C(=O)N[C@H](C(=O)N[C@@H](Cc1ccccc1)C(=O)N[C@@H](CCCNC(=N)N)C(=O)c1nc2ccccc2s1)C(C)O (stereo partly drawn) [MM4028-2, N-[(1S)-2-hydroxy-1-[N-(S)-1-[N-(S)-1-[(1,3-benzothiazol-2-yl)carbonyl]-4-guanidinobutylcarbamoyl]-2-phenylethylcarbamoyl]propyl](2S)-2-acetylamino-3-methylvaleramide]	0.863 nM	4.71 nM	0.064 nM	182 nM						
CC(=O)N[C@@H](CO)C(=O)N[C@@H](Cc1cncn1COCc1ccccc1)C(=O)N[C@@H](CC(C)C)C(=O)N[C@H](CCCNC(=N)N)C(=O)c1nc2ccccc2s1 [MM4036-1, N-[(R)-1-[(1,3-benzothiazol-2-yl)carbonyl]-4-guanidinobutyl](S)-2-[(S)-2-[(S)-2-acetylamino-3-hydroxypropionylamino]-3-{1-[(benzyloxy)methyl]-5-imidazolyl}propionylamino]-4-methylvaleramide]	1.47 nM	139 nM	102 nM	1550 nM						
CC(=O)N[C@@H](CO)C(=O)N[C@@H](Cc1cncn1COCc1ccccc1)C(=O)N[C@@H](CC(C)C)C(=O)N[C@@H](CCCNC(=N)N)C(=O)c1nc2ccccc2s1 [MM4036-2, N-[(S)-1-[(1,3-benzothiazol-2-yl)carbonyl]-4-guanidinobutyl](S)-2-[(S)-2-[(S)-2-acetylamino-3-hydroxypropionylamino]-3-{1-[(benzyloxy)methyl]-5-imidazolyl}propionylamino]-4-methylvaleramide]	2.81 nM	77.7 nM		1070 nM						
CCC(C)[C@H](NC(C)=O)C(=O)N[C@@H](CCC(=O)O)C(=O)N[C@@H](Cc1ccccc1)C(=O)N[C@@H](CCCNC(=N)N)C(=O)c1nc2ccccc2s1 (stereo partly drawn) [MM4037-2, (S)-4-[(2S)-2-acetylamino-3-methylvalerylamino]-4-[N-(S)-1-[N-(S)-1-[(1,3-benzothiazol-2-yl)carbonyl]-4-guanidinobutylcarbamoyl]-2-phenylethylcarbamoyl]butyric acid]	0.35 nM	2.42 nM	0.109 nM	276 nM						
CC(=O)N[C@@H](Cc1c[nH]c2ccccc12)C(=O)N[C@@H](Cc1ccccc1)C(=O)N[C@@H](CCCNC(=N)N)C(=O)c1nc2ccc(C(=O)O)cc2s1 [PK-1-103, 2-[(S)-2-[(S)-2-[(S)-2-acetylamino-3-(3-indolyl)propionylamino]-3-phenylpropionylamino]-5-guanidinovaleryl]-1,3-benzothiazole-6-carboxylic acid]	2.08 nM		0.223 nM	235 nM			49.1 nM			
CC(=O)N[C@@H](Cc1c[nH]c2ccccc12)C(=O)N[C@@H](CC(C)C)C(=O)N[C@@H](CCCNC(=N)N)C(=O)c1nc2ccc(C(=O)O)cc2s1 [PK-1-105, 2-[(S)-2-[(S)-2-[(S)-2-acetylamino-3-(3-indolyl)propionylamino]-4-methylvalerylamino]-5-guanidinovaleryl]-1,3-benzothiazole-6-carboxylic acid]	0.362 nM		1.45 nM	98.3 nM			144 nM			
CC(=O)N[C@H]1Cc2ccc(cc2)OCCCC[C@@H](C(=O)N[C@H](CCCNC(=N)N)C(=O)c2nc3ccccc3s2)NC(=O)[C@H](Cc2ccccc2)NC1=O [VD4111A, N-[(R)-1-[(1,3-benzothiazol-2-yl)carbonyl]-4-guanidinobutyl]-(7S,10S,13S)-13-acetylamino-10-benzyl-9,12-dioxo-2-oxa-8,11-diazabicyclo[13.2.2]nonadeca-1(17),15,18-triene-7-carboxamide]		330 nM			12.7 nM	3280 nM				
CC(=O)N[C@H]1Cc2ccc(cc2)OCCCC[C@@H](C(=O)N[C@@H](CCCNC(=N)N)C(=O)c2nc3ccccc3s2)NC(=O)[C@@H](Cc2c[nH]c3ccccc23)NC1=O [VD4162B, N-[(S)-1-[(1,3-benzothiazol-2-yl)carbonyl]-4-guanidinobutyl]-(7S,10R,13S)-13-acetylamino-10-[(3-indolyl)methyl]-9,12-dioxo-2-oxa-8,11-diazabicyclo[13.2.2]nonadeca-1(17),15,18-triene-7-carboxamide]						3.35 nM		0.538 nM	2.88 nM	4.75 nM
CC(=O)N[C@H]1Cc2ccc(cc2)Oc2cccc(c2)C[C@@H](C(=O)N[C@H](CCCNC(=N)N)C(=O)c2nc3ccccc3s2)NC(=O)[C@H](CC(C)C)NC1=O [VD5064A, N-{(R)-1-[(1,3-benzothiazol-2-yl)carbonyl]-4-guanidinobutyl}-(9S,12S,15S)-15-acetylamino-12-isobutyl-11,14-dioxo-2-oxa-10,13-diazatricyclo[15.2.2.1^3,^7]docosa-1(19),3,5,7(22),17,20-hexaene-9-carboxamide]	2.6 nM	680 nM	261 nM	550 nM						

Reference: US20250171495A1, “MUTLI-TARGETED SERINE PROTEASE INHIBITORS FOR TREATMENT OF CANCER AND VIRAL INFECTION” (Washington University, priority 2023, published 2025)
